Measurements published in patent publication US20230000842A1, “METHODS OF TREATING CARTILAGE DISORDERS THROUGH INHIBITION OF CLK AND DYRK” (SAMUMED, LLC, priority 2019, published 2023).

How the values were obtained:
CLK2 kinase = CLK2 kinase (Homo sapiens, UniProt P49760); test: CLK2 kinase activity assay (Z-lyte FRET); assay type: biochemical; settings: Z-lyte Ser/Thr 6 peptide, 60 μM ATP, 1 h at room temperature;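 further: FRET read-out as coumarin to fluorescein emission ratio, unphosphorylated peptide as 0% and phosphorylated peptide as 100% controls, duplicate reactions, non-linear regression fit of dose-response curves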
CLK3 kinase = CLK3 kinase (Homo sapiens, UniProt P49761); test: CLK3 kinase activity assay (Z-lyte FRET); assay type: biochemical; settings: Z-lyte Ser/Thr 18 peptide, 156 μM ATP, 1 h at room temperature;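 further: kinase activity read as coumarin/fluorescein emission ratio by FRET, unphosphorylated peptide as 0% and phosphorylated peptide as 100% control, values from non-linear regression of dose-response curves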
[1] = tested on: MMP-3 levels in supernatant of chondrocytes stimulated with IL1-β; test: Chondrocyte protection assay compound screening (MMP-3 LANCE Ultra); assay type: cell-based, human; settings: Homo sapiens, Chondrocyte, IL1-β 10 ng/mL overnight, 11-point curves from 3 μM to 0.05 nM; for Emax: read-out: Maximum % Inhibition
Outline: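 Primary human chondrocytes (passage 2–5) in differentiation medium were stimulated with 10 ng/mL IL1-β for an overnight incubation at 37 °C. MMP-3 in 1:7-diluted supernatant was read by TR-FRET immunoassay against a standard curve, normalised to IL1-β-stimulated wells; EC50 and maximum % inhibition came from nonlinear regression.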

[2] = tested on: Wnt pathway activity (SW480 colon carcinoma cells stably expressing the Sp5-Luc reporter); test: Wnt pathway activity screening assay (Sp5-Luc reporter gene assay); settings: Homo sapiens, SW480, Table 4; SW480 cells stably expressing Sp5-Luc reporter, 10-point dose-response from 10 μM, 36 to 48 hours

Chain of CLK3 kinase (P49761 whole entry): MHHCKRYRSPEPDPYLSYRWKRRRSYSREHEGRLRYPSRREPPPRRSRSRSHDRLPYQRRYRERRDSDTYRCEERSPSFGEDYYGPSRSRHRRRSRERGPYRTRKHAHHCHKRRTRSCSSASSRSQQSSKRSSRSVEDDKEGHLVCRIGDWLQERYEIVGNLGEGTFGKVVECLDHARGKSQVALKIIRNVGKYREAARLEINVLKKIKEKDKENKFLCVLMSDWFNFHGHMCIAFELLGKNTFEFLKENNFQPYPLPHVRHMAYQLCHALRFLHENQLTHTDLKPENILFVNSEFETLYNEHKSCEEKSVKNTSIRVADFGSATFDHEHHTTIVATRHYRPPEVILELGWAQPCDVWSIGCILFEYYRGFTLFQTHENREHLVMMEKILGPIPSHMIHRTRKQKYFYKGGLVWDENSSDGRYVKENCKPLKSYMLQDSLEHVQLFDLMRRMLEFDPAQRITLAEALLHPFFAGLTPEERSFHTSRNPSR
Chain of CLK2 kinase (P49760 whole entry): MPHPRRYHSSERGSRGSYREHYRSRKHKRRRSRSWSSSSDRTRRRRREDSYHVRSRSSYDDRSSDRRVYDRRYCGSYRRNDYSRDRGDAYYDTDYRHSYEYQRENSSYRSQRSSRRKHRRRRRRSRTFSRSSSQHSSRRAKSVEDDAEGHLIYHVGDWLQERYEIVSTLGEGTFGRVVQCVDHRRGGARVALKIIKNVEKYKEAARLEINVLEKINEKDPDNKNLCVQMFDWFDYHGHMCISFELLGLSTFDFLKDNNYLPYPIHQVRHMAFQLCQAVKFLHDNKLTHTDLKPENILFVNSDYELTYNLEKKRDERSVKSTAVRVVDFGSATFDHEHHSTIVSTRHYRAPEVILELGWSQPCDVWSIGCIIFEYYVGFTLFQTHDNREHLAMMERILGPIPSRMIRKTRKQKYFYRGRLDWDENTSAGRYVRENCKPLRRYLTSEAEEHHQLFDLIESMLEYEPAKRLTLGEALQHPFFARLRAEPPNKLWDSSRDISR

Compound | EC50 (CLK2 kinase) [nM] | EC50 (CLK3 kinase) [nM] | EC50 [1] [nM] | Emax [1] [%] | EC50 [2] [nM]
Cc1n[nH]c2ccc(-c3cncc(N4CCC[C@H](N)C4)n3)cc12 [compound 38] | 35 | 8010 | ≥ 3000 | 97.5 | 1430
Cc1n[nH]c2ccc(-c3cncc(N4CCC(O)CC4)n3)cc12 [compound 39] | 25 | 4260 | 47.8 | 60.8 | 1900
Cc1n[nH]c2ccc(-c3cncc(N[C@H]4CC[C@H](O)CC4)n3)cc12 [compound 43] | 1 | 309 | ≥ 3000 | 41.9 | 95
Cc1n[nH]c2ccc(-c3cncc(NCC4(F)CNC4)n3)cc12 [compound 48] | 3 | 1100 | 2270 | 100 | 780
Cc1n[nH]c2ccc(-c3cncc(OCC4(F)CNC4)n3)cc12 [compound 49] | 6 | 2200 | 3.5 | 66.1 | 3250
Cc1n[nH]c2ccc(-c3cncc(OC[C@@H]4Cc5ccccc5CN4)n3)cc12 [compound 50] | 27 | 5730 | ≥ 3000 | 44.4 | 2810
Cc1n[nH]c2ccc(-c3cc(OC[C@H](N)Cc4ccccc4)cnn3)cc12 [compound 53] | 19 | 3490 | ≥ 3000 | 74.9 | 1150
O=C(Nc1cccnc1)c1n[nH]c2ncc(-c3cccnc3)cc12 [compound 61] | 8 | 916 | 2.2 | 69.2 | 795
O=C(Nc1ccc(CN2CCCC2)cc1)c1n[nH]c2ccc(-c3cccnc3F)cc12 [compound 65] | 1 | 47 | ≥ 3000 | 98.1 | 196
CN1CCC(Oc2ccc(NC(=O)c3n[nH]c4ccc(-c5ccc(N)nc5)cc34)cc2)CC1 [compound 66] | 1 | 49 | 4.9 | 62.6 | 477
COc1ccc(NC(=O)c2n[nH]c3ccc(-c4cncc(CO)c4)cc23)cn1 [compound 67] | 1 | 41 | ≥ 3000 | 48.7 | 96.6
O=C(Nc1ccc(N2CCCC2)nc1)c1n[nH]c2ccc(-c3cncc(CN4CCC4)c3)cc12 [compound 68] | 1 | 139 | ≥ 3000 | 26.6 | > 10000
O=C(Nc1cccnc1)c1n[nH]c2ccc(-c3cncc(CN4CC(CO)(CO)C4)c3)cc12 [compound 69] | 2 | 62 | 69.7 | 12.3 | > 10000
NC(=O)c1n[nH]c2ccc(-c3cncc(CN4CCCCC4)c3)cc12 [compound 74] | 12 | 498 | 2.3 | 62.7 | 1960
O=C(NCc1cc(F)cc(F)c1)c1n[nH]c2ccc(-c3cncc(CN4CCCCC4)c3)cc12 [compound 77] | 6 | 1670 | ≥ 3000 | 84.8 | 1820
O=C(Nc1ccc(OC(CO)CO)nc1)c1n[nH]c2ccc(-c3cncc(CN4CCCCC4)c3)cc12 [compound 83] | 5 | 73 | 303 | – | 500
NC(=O)c1ccc(NC(=O)c2n[nH]c3ccc(-c4cncc(CN5CCCCC5)c4)cc23)cn1 [compound 87] | 1 | 11 | 2220 | 100 | 13
O=C(Nc1ccc(C(=O)N2CCCC2)nc1)c1n[nH]c2ccc(-c3cncc(CN4CCCCC4)c3)cc12 [compound 88] | 1 | 12 | ≥ 3000 | 100 | 30
